Peptide text beside a SMILES is read from it.
Assay: Corneal penetration assay (aqueous humor level after eye drop)
Type: in vivo, mouse
Conditions: for Total / Measure concentration: mouse aqueous humor, UPLC-MS; for Measure concentration: sample mixed with 1 ml 0.1% formic acid
Procedure: The apoEdp peptide (LRKLRKRLLLRKLRKRLL) is rich in cationic amino acids lysine and arginine. ApoEdp is more cationic than HIV-1 Tat cell penetrating peptide (Table 1). We hypothesized that apoEdp could act as a corneal penetrating peptide.
Mouse eyes were treated with 1% apoEdp drops. At 0, 1, 2, 3, hours post-treatment, mice were sacrificed and eyes were enucleated. The globes were washed with sterile PBS three times and aqueous humor was aspirated using a 27-gauge needle and 1 mL syringe. The mouse aqueous humor samples were mixed with 1 ml of 0.1% formic acid solution and allowed to stand for 5 minutes. The samples were filtered with a 0.2-micron filter and analyzed using a Waters Acquity UPLC system (Milford, MA) with mass spectrophotometrical detection. […] These peaks included 483.9 m/z 604.4 m/z, and 805.6 m/z. We used the […] peak for the analysis because it was the strongest. For the UPLC analysis, we used a BEH300 C4 column 2.1 mm×100 mm×1.7 µm. A 2 component mobile phase was used with component 1:0.1% formic Acid, and Component 2: Acetonitrile with 0.1% formic acid. The flow rate was 0.2 ml/min and gradient elution was used with a linear gradient.

[1] = 2 hours after 1% apoEdp eye drop, left eye
[2] = 2 hours after 1% apoEdp eye drop, right eye
[3] = 3 hours after 1% apoEdp eye drop, left eye
[4] = 3 hours after 1% apoEdp eye drop, right eye

- time to reach the anterior chamber of the eye (applied topically (1% eye drop), mouse eyes): ≤ 3 h
- Total [1]: 3.89 ng
- Measure concentration [1]: 0.004 µg/mL
- Total [2]: 5.9 ng
- Measure concentration [2]: 0.006 µg/mL
- Total [3]: 58.08 ng
- Measure concentration [3]: 0.058 µg/mL
- Total [4]: 36.3 ng
- Measure concentration [4]: 0.036 µg/mL
SMILES: CC(=O)N[C@@H](CC(C)C)C(=O)N[C@@H](CCCNC(=N)N)C(=O)N[C@@H](CCCCN)C(=O)N[C@@H](CC(C)C)C(=O)N[C@@H](CCCNC(=N)N)C(=O)N[C@@H](CCCCN)C(=O)N[C@@H](CCCNC(=N)N)C(=O)N[C@@H](CC(C)C)C(=O)N[C@@H](CC(C)C)C(=O)N[C@@H](CC(C)C)C(=O)N[C@@H](CCCNC(=N)N)C(=O)N[C@@H](CCCCN)C(=O)N[C@@H](CC(C)C)C(=O)N[C@@H](CCCNC(=N)N)C(=O)N[C@@H](CCCCN)C(=O)N[C@@H](CCCNC(=N)N)C(=O)N[C@@H](CC(C)C)C(=O)N[C@@H](CC(C)C)C(N)=O [apoEdp] (Ac-LRKLRKRLLLRKLRKRLL-NH2)
